# Target: T1, HEK cells stably transfected with tetracycline inducible hNR1 and hNR2A (Homo sapiens, UniProt Q05586+Q12879)
# T1 construct: expressed in transfected cells; host or cells: HEK cells, stably transfected, tetracycline/doxycycline inducible
# Experiment: Assay 1: Cell-Based Assay, cytosolic calcium response to positive allosteric modulators (with 30 μM glycine and 300 nM L-glutamate, EC30)
# Settings: Table 3; cytosolic calcium response, with 30 μM glycine and 300 nM L-glutamate (EC30); — = no plateau was reached
# Method in brief: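 Cells induced 24 h with 7.5 μg mL^−1 doxycycline plus 500 μM (+)-ketamine, loaded 60 min at 37 °C with calcium dye in Mg-free HBSS (1.8 mM Ca, probenecid, 10 μM (+)-ketamine, pH 7.15). Peak RFU over 5 min after compound addition, scaled to 100 μM L-glutamate (100%) and 0 μM (0%); four-parameter Hill fit for EC50, max % if no plateau.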
# T1 sequence (Q12879 23-1464, other chains not shown): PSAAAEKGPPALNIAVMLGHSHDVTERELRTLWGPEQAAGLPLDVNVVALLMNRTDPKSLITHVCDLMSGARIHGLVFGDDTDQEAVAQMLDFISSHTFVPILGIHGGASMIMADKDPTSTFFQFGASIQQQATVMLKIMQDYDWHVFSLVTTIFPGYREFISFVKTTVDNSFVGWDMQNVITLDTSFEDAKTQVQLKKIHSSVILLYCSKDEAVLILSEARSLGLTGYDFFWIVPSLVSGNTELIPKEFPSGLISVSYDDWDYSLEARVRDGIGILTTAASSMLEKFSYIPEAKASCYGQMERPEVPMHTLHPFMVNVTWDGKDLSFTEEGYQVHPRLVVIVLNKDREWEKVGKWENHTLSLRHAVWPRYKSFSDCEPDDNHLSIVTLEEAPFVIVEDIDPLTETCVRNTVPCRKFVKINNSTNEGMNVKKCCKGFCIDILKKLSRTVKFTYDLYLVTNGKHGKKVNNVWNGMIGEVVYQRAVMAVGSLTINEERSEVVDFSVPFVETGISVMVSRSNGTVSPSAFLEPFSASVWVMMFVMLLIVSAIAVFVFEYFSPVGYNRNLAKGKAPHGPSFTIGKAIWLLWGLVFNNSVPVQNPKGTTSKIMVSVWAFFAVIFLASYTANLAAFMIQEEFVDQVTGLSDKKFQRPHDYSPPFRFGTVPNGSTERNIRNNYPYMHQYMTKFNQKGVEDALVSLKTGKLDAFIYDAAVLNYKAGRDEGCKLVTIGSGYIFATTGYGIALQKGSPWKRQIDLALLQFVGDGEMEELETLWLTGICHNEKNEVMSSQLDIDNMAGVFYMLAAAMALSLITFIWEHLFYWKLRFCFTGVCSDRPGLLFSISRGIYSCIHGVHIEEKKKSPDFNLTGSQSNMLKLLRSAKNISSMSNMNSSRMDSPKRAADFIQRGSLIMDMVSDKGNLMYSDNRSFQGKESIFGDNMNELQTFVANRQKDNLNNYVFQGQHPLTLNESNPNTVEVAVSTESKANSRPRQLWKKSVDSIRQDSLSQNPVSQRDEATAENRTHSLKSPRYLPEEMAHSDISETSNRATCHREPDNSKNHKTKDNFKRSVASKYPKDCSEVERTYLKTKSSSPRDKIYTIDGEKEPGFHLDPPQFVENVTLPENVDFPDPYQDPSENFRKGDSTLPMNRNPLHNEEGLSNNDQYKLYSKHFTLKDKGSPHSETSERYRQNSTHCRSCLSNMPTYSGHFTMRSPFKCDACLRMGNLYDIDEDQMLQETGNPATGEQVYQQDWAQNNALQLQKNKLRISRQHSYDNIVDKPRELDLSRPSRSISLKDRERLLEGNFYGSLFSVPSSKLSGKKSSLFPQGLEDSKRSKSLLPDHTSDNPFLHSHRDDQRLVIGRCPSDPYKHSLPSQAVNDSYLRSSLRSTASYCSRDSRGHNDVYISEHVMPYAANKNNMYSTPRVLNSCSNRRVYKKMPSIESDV
row,EC50 [µM],Structure (SMILES)
1,3.22,"CCNC(=O)c1c(Cl)sc2nc(Cc3cccc(C(F)(F)F)c3F)cc(=O)n12 [compound 60, 2-chloro-N-ethyl-7-[[2-fluoro-3-(trifluoromethyl)phenyl]methyl]-5-oxo-thiazolo[3,2-a]pyrimidine-3-carboxamide]"
2,8.06,"CNC(=O)c1c(C(F)(F)F)sc2nc(Cn3nc(C(F)(F)F)cc3C)cc(=O)n12 [compound 61, N-methyl-7-[[5-methyl-3-(trifluoromethyl)pyrazol-1-yl]methyl]-5-oxo-2-(trifluoromethyl)thiazolo[3,2-a]pyrimidine-3-carboxamide]"
3,24.6,"CNC(=O)c1c(C(F)(F)F)sc2nc(Cn3nc(C)cc3C(F)(F)F)cc(=O)n12 [compound 62, N-methyl-7-[[3-methyl-5-(trifluoromethyl)pyrazol-1-yl]methyl]-5-oxo-2-(trifluoromethyl)thiazolo[3,2-a]pyrimidine-3-carboxamide]"
4,3.71,"CNC(=O)c1c(C(F)(F)F)sc2nc(Cc3cccc(C(F)(F)F)c3F)cc(=O)n12 [compound 63, 7-[[2-fluoro-3-(trifluoromethyl)phenyl]methyl]-N-methyl-5-oxo-2-(trifluoromethyl)thiazolo[3,2-a]pyrimidine-3-carboxamide]"
5,12.1,"CNC(=O)c1c(C(F)(F)F)sc2nc(Cc3cccc(Cl)c3F)cc(=O)n12 [compound 64, 7-[(3-chloro-2-fluoro-phenyl)methyl]-N-methyl-5-oxo-2-(trifluoromethyl)thiazolo[3,2-a]pyrimidine-3-carboxamide]"
6,0.551,"Cc1sc2nc(Cn3nc(C(F)(F)F)cc3Cl)cc(=O)n2c1C(=O)NCC(F)(F)F [compound 65, 7-[[5-chloro-3-(trifluoromethyl)pyrazol-1-yl]methyl]-2-methyl-5-oxo-N-(2,2,2-trifluoroethyl)thiazolo[3,2-a]pyrimidine-3-carboxamide]"
7,1.69,"Cc1sc2nc(Cn3nc(Cl)cc3C(F)(F)F)cc(=O)n2c1C(=O)NCC(F)(F)F [compound 66, 7-[[3-chloro-5-(trifluoromethyl)pyrazol-1-yl]methyl]-2-methyl-5-oxo-N-(2,2,2-trifluoroethyl)thiazolo[3,2-a]pyrimidine-3-carboxamide]"
8,36.6,"Cc1cc(C(F)(F)F)n(Cc2cc(=O)n3c(C(=O)NCC(F)(F)F)c(C)sc3n2)n1 [compound 67, 2-methyl-7-[[3-methyl-5-(trifluoromethyl)pyrazol-1-yl]methyl]-5-oxo-N-(2,2,2-trifluoroethyl)thiazolo[3,2-a]pyrimidine-3-carboxamide]"
9,30.4,"CCNC(=O)c1c(C)sc2nc(Oc3cccc(C#N)c3F)cc(=O)n12 [compound 68, 7-(3-cyano-2-fluoro-phenoxy)-N-ethyl-2-methyl-5-oxo-thiazolo[3,2-a]pyrimidine-3-carboxamide]"
10,11.2,"CCNC(=O)c1c(Cl)sc2nc(Cc3cccc(C#N)c3F)cc(=O)n12 [compound 69, 2-chloro-7-[(3-cyano-2-fluoro-phenyl)methyl]-N-ethyl-5-oxo-thiazolo[3,2-a]pyrimidine-3-carboxamide]"
11,2.92,"CNC(=O)c1c(C(F)(F)F)sc2nc(Cc3cccc(C#N)c3F)cc(=O)n12 [compound 70, 7-[(3-cyano-2-fluoro-phenyl)methyl]-N-methyl-5-oxo-2-(trifluoromethyl)thiazolo[3,2-a]pyrimidine-3-carboxamide]"
12,1.37,"CCNC(=O)Cc1c(C)sc2nc(Cc3cccc(C(F)(F)F)c3F)cc(=O)n12 [compound 71, N-ethyl-2-[7-[[2-fluoro-3-(trifluoromethyl)phenyl]methyl]-2-methyl-5-oxo-thiazolo[3,2-a]pyrimidin-3-yl]acetamide]"
13,62.6,"CNC(=O)c1c(C)sc2nc(Cn3cc(C(F)(F)F)cn3)cc(=O)n12 [compound 72, N,2-dimethyl-5-oxo-7-[[4-(trifluoromethyl)pyrazol-1-yl]methyl]thiazolo[3,2-a]pyrimidine-3-carboxamide]"
14,40.1,"Cc1sc2nc(Oc3cccc(C(F)(F)F)c3F)cc(=O)n2c1C1CC1 [compound 73, 3-cyclopropyl-7-[2-fluoro-3-(trifluoromethyl)phenoxy]-2-methyl-thiazolo[3,2-a]pyrimidin-5-one]"
15,0.507,"N#Cc1cccc(Cc2cc(=O)n3c(C4CC4C(F)(F)F)c(Cl)sc3n2)c1F (stereo not drawn) [compound 74, 3-[[2-chloro-5-oxo-3-[2-(trifluoromethyl)cyclopropyl]thiazolo[3,2-a]pyrimidin-7-yl]methyl]-2-fluoro-benzonitrile]"
16,28.9,"CNC(=O)Cc1c(C(F)(F)F)sc2nc(Cc3cccc(C(F)(F)F)c3F)cc(=O)n12 [compound 75, 2-[7-[[2-fluoro-3-(trifluoromethyl)phenyl]methyl]-5-oxo-2-(trifluoromethyl)thiazolo[3,2-a]pyrimidin-3-yl]-N-methyl-acetamide]"
17,0.436,"CCNC(=O)c1c(C)sc2nc(Cn3nc(C(F)(F)F)cc3C3CC3)cc(=O)n12 [compound 76, 7-[[5-cyclopropyl-3-(trifluoromethyl)pyrazol-1-yl]methyl]-N-ethyl-2-methyl-5-oxo-thiazolo[3,2-a]pyrimidine-3-carboxamide]"
18,0.271,"Cc1sc2nc(Oc3cccc(C#N)c3F)cc(=O)n2c1C1CC1C(F)(F)F (stereo not drawn) [compound 77, 2-fluoro-3-[2-methyl-5-oxo-3-[2-(trifluoromethyl)cyclopropyl]thiazolo[3,2-a]pyrimidin-7-yl]oxy-benzonitrile]"
19,2.96,"CNC(=O)Cc1c(C(F)(F)F)sc2nc(Cn3nc(C(F)(F)F)cc3C3CC3)cc(=O)n12 [compound 78, 2-[7-[[5-cyclopropyl-3-(trifluoromethyl)pyrazol-1-yl]methyl]-5-oxo-2-(trifluoromethyl)thiazolo[3,2-a]pyrimidin-3-yl]-N-methyl-acetamide]"
20,14.3,"CNC(=O)Cc1c(C(F)(F)F)sc2nc(Cn3nc(C4CC4)cc3C(F)(F)F)cc(=O)n12 [compound 79, 2-[7-[[3-cyclopropyl-5-(trifluoromethyl)pyrazol-1-yl]methyl]-5-oxo-2-(trifluoromethyl)thiazolo[3,2-a]pyrimidin-3-yl]-N-methyl-acetamide]"
21,52,"Cc1sc2nc(Cc3cccc(C(F)(F)F)c3F)cc(=O)n2c1Cc1ncc[nH]1 [compound 81, 7-[[2-fluoro-3-(trifluoromethyl)phenyl]methyl]-3-(1H-imidazol-2-ylmethyl)-2-methyl-thiazolo[3,2-a]pyrimidin-5-one]"
22,0.0787,"CCNC(=O)c1c(C)sc2nc(CN(CC)c3ccc(F)cc3)cc(=O)n12 [compound 82, N-ethyl-7-[(N-ethyl-4-fluoro-anilino)methyl]-2-methyl-5-oxo-thiazolo[3,2-a]pyrimidine-3-carboxamide]"
23,0.154,"CCNC(=O)c1c(C(F)(F)F)sc2nc(CN(CC)c3ccc(F)cc3)cc(=O)n12 [compound 83, N-ethyl-7-[(N-ethyl-4-fluoro-anilino)methyl]-5-oxo-2-(trifluoromethyl)thiazolo[3,2-a]pyrimidine-3-carboxamide]"
24,11.2,"CC1CC1c1c(C(F)(F)F)sc2nc(Cc3cccc(C#N)c3F)cc(=O)n12 (stereo not drawn) [compound 84, 2-fluoro-3-[[3-(2-methylcyclopropyl)-5-oxo-2-(trifluoromethyl)thiazolo[3,2-a]pyrimidin-7-yl]methyl]benzonitrile]"
